# Columns and labels:
# aged cells = experiment: Clonogenic assay (CFU-GM) of aged cells after miRNA mimic, siRNA or exosome treatment; format: cell-based, human; conditions: overexpression of candidate miRNAs in aged isochronic cultures, vs negative control RNA
# Excerpt: Aged TNCs (10×10^6 cells per sample) were nucleofected with microRNA mimics (Qiagen), miRNA inhibitors (Qiagen), negative control siRNA (Qiagen), negative control miRNA inhibitor (Qiagen) or downstream target candidate siRNAs (Origene) using the Amaxa P3 Primary Cell 4D-Nucleofector X Kit (Lonza) on a 4D Nucleofector device (Lonza), according to manufacturer's specific protocol. Briefly, for nucleofection of CD34+ cells used in clonogenic assays, cells were nucleofected with 60 nmol total miRNA mimics, miRNA inhibitors or siRNA using the “human CD34+ cell” program. For nucleofection of T cells used in T cell activation and cell-mediated cytotoxicity assays, cells were nucleofected with 240 nmol total miRNA mimics, miRNA inhibitors or siRNA using the “human unstimulated T cell, high functionality” program.
# huNSG mice = tested on: huNSG mice
# Procedure: T cell activation was determined using the T Cell Activation/Expansion Kit (Miltenyi). Briefly, anti-biotin MACSiBead Particles were loaded with CD2, CD3, and CD28 antibodies. Cells from 7-day isochronic or heterochronic cultures, or MNCs isolated from huNSG mouse blood by Ficoll-Hypaque density gradient, were incubated with loaded anti-biotin MACSiBead Particles at a 1:2 bead to cell ratio for 72 h to activate T cells. Addition of unloaded MACSiBead Particles served as negative control. After 72 h, cells were fluorescently labeled using CD45-FITC, CD4-PE, CD25-PerCP-Cy5.5 and CD8-APC to determine T cell activation status by flow cytometry.
# 5-week old, female NOD/scid IL2Rγnull (NSG) mice were purchased from Jackson Labs and housed in an AALAC-accredited facility at Rutgers, N.J. Medical School (Newark, N.J.). The protocol was approved by the Institutional Animal Care and Use Committee, Rutgers School of Biomedical Health Sciences (Newark, N.J.). Mice were acclimated in the Rutgers barrier animal facility for 1 week prior to experimental use. 6-week old mice were subjected to 150 cGy whole body gamma irradiation using a Mark-I cesium irradiator unit. 5 hours post-irradiation, mice were injected i.v. with 5×10^5 human CD34+ cells isolated from aged or young study donor Leukopaks. Engraftment proceeded over 15-19 weeks, with peripheral blood chimerism monitored at 9 and 13 weeks post-transplant. % Chimerism was detected by co-labeling blood with anti-human CD45-APC (HI30) and anti-mouse CD45-FITC (30-F11) for monitoring by flow cytometry. Humanized NSG (huNSG) enrolled in the treatment arm of the transwell-based animal study were given a 2nd i.v. injection of 5×10^5 autologous aged cells from 7-day isochronic (non-restored) or heterochronic (restored) cultures that were CD3-depleted (Miltenyi) prior to transplant, or saline control. The miRNA-based animal study was performed as above, except that the treatment arm utilized autologous aged cells transfected with 60 nmol total of either miR-619 alone, miR-combo (miR-619, -1303, 4497) or control RNA. Transfections utilized the HiPerFect reagent (Qiagen), and cells were transfected for a total of 7 days prior to CD3 depletion and i.v. injection as above. Mice were sacrificed at 14-15 weeks post-transplant, and blood, BM and speen harvested for biochemical, phenotypic and functional analyses. Major organs were also harvested for histological assessment. Tissue embedding, processing and staining were performed by the Digital Imaging and Histology Core of Rutgers-New Jersey Medical School Cancer Center (Newark, N.J.). Histologic findings were confirmed on H&E slides by a board-certified veterinary pathologist.
# Detection of senescence associated secretory factors (SASFs) in plasma of huNSG mice was performed using Custom C-Series Human Antibody Arrays (Ray Biotech). Arrays were labeled with antibodies to 68 different factors linked to cellular senescence. Briefly, blood from huNSG mice was pelleted for 10 min at 300 g and plasma supernatant collected in siliconized microfuge tubes for SASF determination. […] Background levels were calculated by incubating the arrays with plasma from non-humanized NSG mice and then subtracting the obtained values from each huNSG sample.
# For the T Cell Cytokine Array (Ray Biotech), conditioned media was collected from cells isolated from huNSG peripheral blood that were stimulated as per the T cell activation assay (see above) after 72 h and stored in protein lo-bind tubes. […] For both the custom SASF and T cell cytokine arrays, densitometry was performed using the UN-SCAN-IT densitometry software (Silk Scientific). Hierarchical clustering and heat map generation were perfomed with Heatmapper software.
# BM from huNSG were flushed with a 26-gauge needle and collected for subsequent purification of engrafted human cells with the Mouse Cell Depletion Kit (Miltenyi).
# K562 = experiment: Cell-mediated cytotoxicity assay, aged effector cells; format: cell-based; conditions: miRNA formulations in aged cells, vs control RNA
# Procedure: Cell cytotoxicity was determined with the CFSE/7-AAD Cell Cytotoxicity Kit (Cayman Chemical) according to manufacturer's specified instructions. Briefly, the human chronic myelogenous leukemia cell line, K562, (ATCC # CCL-243) was used as target cells. 107 K562 cells were labeled for 15 min with CFSE dye, washed twice and diluted 100-fold for 30 min incubation at 37° C. Cells from 7-day isochronic or heterochronic cultures were used as effectors. Effector and target cells were added to 6-well plates at the following effector-to-target (E:T) ratios: 0:1, 6.25:1, 12.5:1 and 25:1, and cell mixtures incubated for 4 h at 37° C. Cells were harvested and counter-stained with 7-AAD. 50,000 events were acquired on the FACSCalibur flow cytometer, and data analyzed using BD CellQuest Pro™ software. Target cells incubated alone with 7-AAD served as control to calculate spontaneous lysis, while effector cells alone with 7-AAD served as control to detect dead effector cells. Percent lysis was calculated according the following formula: [(cells positive for both CFSE and 7-AAD/total CFSE-labeled cells)*100−spontaneous % lysis]. […]
substance,measurement,setting,value
"miR-619: miRNA (miR-619-5p), GCUGGGAUUACAGGCAUGAGCC (chemistry not given here; listed as Homo sapiens)",aged colony formation,aged cells,significant effect
same,SASFs decreased (68 factors linked to the SASP),"huNSG mice; blood plasma, 1.5-fold cutoff, vs control",51.4%
same,total SASF expression,"huNSG mice; blood plasma, vs control",significant decreases
same,mean overall survival,"huNSG mice; mice receiving aged cells treated with miRNA, 15 weeks after 2nd transplant",89%
same,clonogenicity,"huNSG mice; normalized to control, compared to heterochronic treatment",more robust
same,huCD3+ cells in blood,huNSG mice; vs RNA control,increased
same,huCD4+ cells in blood,huNSG mice; vs RNA control,significantly increased
same,BM clonogenicity,huNSG mice; vs control,significantly increased
same,huCD4+/CD8+ ratio in blood,huNSG mice; vs control,increased
same,huCD8+ cells in blood,huNSG mice; vs control,decreased
same,human chimerism in BM or blood,huNSG mice; vs control RNA,No significant difference
same,target lysis (cell-mediated cytotoxicity),K562,significant increases

# Reference: patent publication US10717981B2, “Therapeutic compositions and methods of making and using the same” (Advanced ReGen Medical Technologies, LLC, priority 2018, dated 2020)
